Values joined by “and” are separate entries in the source; they are usually repeats but may differ in a detail not shown here. Equal entries are not always repeated. Where two headings read alike, the source gives them in different places.
Key:
Experiment in all cases: Methyltransferase selectivity assay (SPA)
Format in all cases: biochemical
[1] = target: T1, SMYD3 (Homo sapiens, UniProt Q9H7B4)
T1 construct: purchased Structural Genomics Consortium (SGC Toronto) in-house methyltransferase panel
T1 sequence (Q9H7B4 1-428): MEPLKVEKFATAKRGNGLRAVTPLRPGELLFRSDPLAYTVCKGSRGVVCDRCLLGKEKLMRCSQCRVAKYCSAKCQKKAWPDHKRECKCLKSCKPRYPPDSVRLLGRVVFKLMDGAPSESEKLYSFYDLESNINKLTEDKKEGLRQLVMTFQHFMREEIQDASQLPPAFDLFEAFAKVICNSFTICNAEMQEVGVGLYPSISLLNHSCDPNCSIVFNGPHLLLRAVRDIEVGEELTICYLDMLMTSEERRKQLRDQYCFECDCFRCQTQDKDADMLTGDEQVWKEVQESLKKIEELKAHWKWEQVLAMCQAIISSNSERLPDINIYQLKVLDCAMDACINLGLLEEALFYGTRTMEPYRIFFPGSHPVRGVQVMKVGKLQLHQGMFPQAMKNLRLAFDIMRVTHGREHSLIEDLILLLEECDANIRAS
Procedure: (§1) Selectivity against methyltransferases were determined as described previously. Details of the assays are described in the supplementary methods.
(§2) Methyltransferase selectivity assay1
(§3) The effect of chemical probes and negative controls on the methyltransferase activities of protein, DNA and RNA methyltransferases was tested by radiometric assays using 3H-SAM. For proteins such as MLL1 trimeric, MLL3 pentameric, EZH1 (PRC2) pentameric, and EZH2 (PRC2) trimeric complexes, as well as G9a, GLP, SUV39H1, SUV39H2, SUV420H1, SUV420H2, SETD2, SETD8, SETDB1, SETD7, PRMT1, PRMT3, PRMT4, PRMT5/ MEP50 complex, PRMT6, PRMT7, PRMT8, PRMT9, PRDM9, SMYD2, SMYD3, DNMT1, and BCDIN3D the incorporation of a tritium-labeled methyl group into biotinylated substrate was monitored using scintillation proximity assay (SPA). Briefly, a 10 µL reaction containing 3H-SAM and substrate at concentrations close to the apparent Km values for each enzyme (balanced conditions) was prepared. The reactions were quenched with 10 µL of 7.5 M guanidine hydrochloride; 180 µL of 20 mM Tris buffer (pH 8.0) were added, and the mixture was transferred to a 96-well FlashPlate and incubated for 1 h. The counts per minute (CPM) was measured on a TopCount plate reader. The CPM in the absence of compound or enzyme was defined as 100% activity and background (0%), respectively, for each dataset. […]

[2] = target: T2, PRMT9 (Homo sapiens, UniProt Q6P2P2)
T2 construct: purchased Structural Genomics Consortium (SGC Toronto) in-house methyltransferase panel
T2 sequence (Q6P2P2 1-845): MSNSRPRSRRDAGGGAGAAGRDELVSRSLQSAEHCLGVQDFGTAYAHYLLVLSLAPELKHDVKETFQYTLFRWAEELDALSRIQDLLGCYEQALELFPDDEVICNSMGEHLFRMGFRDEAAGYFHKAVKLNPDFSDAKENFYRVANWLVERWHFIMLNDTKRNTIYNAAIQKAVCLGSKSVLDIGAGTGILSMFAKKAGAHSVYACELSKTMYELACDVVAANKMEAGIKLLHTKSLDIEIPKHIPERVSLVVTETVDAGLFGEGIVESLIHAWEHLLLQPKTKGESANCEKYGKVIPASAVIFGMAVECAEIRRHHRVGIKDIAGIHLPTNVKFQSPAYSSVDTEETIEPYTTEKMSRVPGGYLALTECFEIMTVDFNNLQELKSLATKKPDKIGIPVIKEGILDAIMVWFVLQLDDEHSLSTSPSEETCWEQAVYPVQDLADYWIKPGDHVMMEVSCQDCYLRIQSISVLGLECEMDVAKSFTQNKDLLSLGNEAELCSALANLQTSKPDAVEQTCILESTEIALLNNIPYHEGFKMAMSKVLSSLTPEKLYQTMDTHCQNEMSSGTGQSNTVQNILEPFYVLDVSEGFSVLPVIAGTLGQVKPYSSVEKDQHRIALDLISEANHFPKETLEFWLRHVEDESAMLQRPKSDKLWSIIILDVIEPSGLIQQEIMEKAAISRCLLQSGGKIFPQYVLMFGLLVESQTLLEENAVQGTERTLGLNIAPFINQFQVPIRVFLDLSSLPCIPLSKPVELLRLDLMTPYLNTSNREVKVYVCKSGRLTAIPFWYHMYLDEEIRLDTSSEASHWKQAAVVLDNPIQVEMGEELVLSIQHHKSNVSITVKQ
Procedure: as §1, §2, §3

[3] = target: T3, PRMT4 (Homo sapiens, UniProt Q86X55)
T3 construct: purchased Structural Genomics Consortium (SGC Toronto) in-house methyltransferase panel
T3 sequence (Q86X55 1-608): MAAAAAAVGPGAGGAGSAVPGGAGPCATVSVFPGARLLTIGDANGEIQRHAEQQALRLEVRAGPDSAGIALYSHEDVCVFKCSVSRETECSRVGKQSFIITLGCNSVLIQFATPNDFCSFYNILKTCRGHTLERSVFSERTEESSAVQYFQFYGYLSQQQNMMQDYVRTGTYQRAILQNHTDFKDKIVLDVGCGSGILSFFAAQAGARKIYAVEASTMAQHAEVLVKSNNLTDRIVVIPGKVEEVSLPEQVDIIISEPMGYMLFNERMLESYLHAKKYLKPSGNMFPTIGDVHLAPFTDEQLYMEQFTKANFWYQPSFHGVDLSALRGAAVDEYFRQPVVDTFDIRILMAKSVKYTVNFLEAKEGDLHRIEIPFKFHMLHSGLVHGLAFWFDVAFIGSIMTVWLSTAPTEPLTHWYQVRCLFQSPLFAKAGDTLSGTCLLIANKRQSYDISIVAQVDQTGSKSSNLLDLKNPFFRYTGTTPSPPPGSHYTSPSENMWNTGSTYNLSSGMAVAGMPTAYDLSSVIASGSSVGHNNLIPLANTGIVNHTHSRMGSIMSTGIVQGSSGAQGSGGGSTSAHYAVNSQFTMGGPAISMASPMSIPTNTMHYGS
Procedure: as §1, §2, §3

[4] = target: T4, PRMT5/ MEP50 complex (Homo sapiens, UniProt O14744)
T4 construct: purchased Structural Genomics Consortium (SGC Toronto) in-house methyltransferase panel
T4 sequence (O14744 whole entry): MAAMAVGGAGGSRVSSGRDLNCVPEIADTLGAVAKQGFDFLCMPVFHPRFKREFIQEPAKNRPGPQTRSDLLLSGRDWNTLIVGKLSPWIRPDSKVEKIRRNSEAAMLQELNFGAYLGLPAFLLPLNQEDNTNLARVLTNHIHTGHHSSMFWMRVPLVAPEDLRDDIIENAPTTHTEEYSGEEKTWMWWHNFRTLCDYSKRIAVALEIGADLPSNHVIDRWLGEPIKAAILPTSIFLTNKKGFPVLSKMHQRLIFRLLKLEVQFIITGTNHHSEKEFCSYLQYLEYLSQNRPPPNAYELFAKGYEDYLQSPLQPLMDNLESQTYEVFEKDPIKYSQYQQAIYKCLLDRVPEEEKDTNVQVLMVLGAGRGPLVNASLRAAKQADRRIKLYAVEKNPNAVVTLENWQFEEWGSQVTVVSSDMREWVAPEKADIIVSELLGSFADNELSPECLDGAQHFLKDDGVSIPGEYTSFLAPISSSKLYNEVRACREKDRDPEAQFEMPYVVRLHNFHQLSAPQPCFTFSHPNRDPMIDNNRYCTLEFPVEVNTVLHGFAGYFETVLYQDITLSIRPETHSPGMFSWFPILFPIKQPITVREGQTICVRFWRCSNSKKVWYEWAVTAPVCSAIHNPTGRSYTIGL
T4 sequence (Q9BQA1 whole entry partner): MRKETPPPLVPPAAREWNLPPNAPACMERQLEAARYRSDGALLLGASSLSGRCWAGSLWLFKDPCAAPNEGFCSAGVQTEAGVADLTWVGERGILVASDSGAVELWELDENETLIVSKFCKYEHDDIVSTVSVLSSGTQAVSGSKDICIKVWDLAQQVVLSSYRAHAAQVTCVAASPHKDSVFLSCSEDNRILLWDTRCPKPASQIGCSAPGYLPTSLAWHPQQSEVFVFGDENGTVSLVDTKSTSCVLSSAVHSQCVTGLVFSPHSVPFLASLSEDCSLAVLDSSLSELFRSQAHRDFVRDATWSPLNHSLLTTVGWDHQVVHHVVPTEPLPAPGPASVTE
Procedure: as §1, §2, §3

[5] = 10µM compound, Exp1, Exp2, 10 µM
[6] = 1µM compound, Exp1, Exp2, read-out: Activity %
[7] = 10µM compound, Exp1, Exp2, read-out: Activity %

COc1cc(OC)cc(-c2noc(N3CCN(C)C4(CCN(c5ccccc5)CC4)C3)n2)c1 [MRK-740 -NC]
activity at 1 µM ([1]; 1µM compound, Exp1, Exp2): 100% | Activity % ([1]; 1µM compound, Exp1, Exp2, 1 µM): 102% | activity at 10 µM ([1]; 10µM compound, Exp1, Exp2): 96% | Activity % [1, 5]: 89% | activity at 1 µM ([2]; 1µM compound, Exp1, Exp2): 102% | Activity % ([2]; 1µM compound, Exp1, Exp2, 1 µM): 106% | activity at 10 µM ([2]; 10µM compound, Exp1, Exp2): 98% | activity at 1 µM ([3]; 1µM compound, Exp1, Exp2): 108% | Activity % ([3]; 1µM compound, Exp1, Exp2, 1 µM): 89% | activity at 10 µM ([3]; 10µM compound, Exp1, Exp2): 87% | Activity % [3, 5]: 89% | activity at 1 µM ([4]; 1µM compound, Exp1, Exp2): 108% | Activity % ([4]; 1µM compound, Exp1, Exp2, 1 µM): 99% | activity at 10 µM ([4]; 10µM compound, Exp1, Exp2): 95% | Activity % [4, 5]: 102%

COc1cc(OC)cc(-c2noc(N3CCN(C)C4(CCN(c5ccnc(C)c5)CC4)C3)n2)c1 [MRK-740]
Activity % ([1]; 1µM compound, Exp1, Exp2, 1 µM): 91% | activity at 1 µM [1, 6]: 95% | Activity % [1, 5]: 101% | activity at 10 µM [1, 7]: 96% | activity at 1 µM [2, 6]: 100% | Activity % [2, 5]: 89% and 114% | Activity % ([3]; 1µM compound, Exp1, Exp2, 1 µM): 98% | activity at 1 µM [3, 6]: 101% | Activity % [3, 5]: 99% | activity at 10 µM [3, 7]: 96% | activity at 1 µM [4, 6]: 90% | activity at 10 µM [4, 7]: 94%
